# Legend:
# CDK9/CycT1 = target: T1, CDK9/CycT1 (Homo sapiens, UniProt P50750); experiment: ADP-Glo kinase assay; assay type: biochemical
# T1 construct: purchased SignalChem
# Description: ADP-Glo assay kit was purchased from Promega and the CDK9/CycT1 protein and PDKtide substrate were purchased from SignalChem. […] The reaction was started by pre-incubating 4 μL of protein (20 nM), 2 μL of substrate (100 μM), and 2 μL of serial diluted drug in 1× assay buffer (50 mM HEPES, 3 mM MgCl2, 3 mM MnCl2, and 1 mM DTT) for 30 minutes. After pre-incubating, 4 μL of ATP (1 μM) was added to each well and incubated for an additional 90 minutes. The ADP-Glo Reagent (10 μL) and Kinase Detection Reagent (20 μL) were added to each well and incubated as recommended by Promega. The reaction was quantified by measuring luminescence and the IC50 was calculated using GraphPad Prism software.
# 22Rv1 = experiment: 2D CellTiter-Glo cell viability assay; assay type: cell-based; settings: Homo sapiens; 22Rv1, 72 hours
# Description: (§1) CellTiter-Glo® 2.0 Luminescent cell viability assay reagent was purchased from Promega and 22Rv1 and LASCPC-01 cell lines were purchased from ATCC. […] An equal volume of CellTiter-Glo 2D Reagent was added to the cell suspensions and luminescence was recorded after 30-minute incubation period. […] FIG. 2 illustrates cellular antiproliferative efficacy of a benchmark CDK9 inhibitor AD-4573 on six prostate cancer cell lines over various concentrations.
# (§2) CellTiter-Glo® 2.0 Luminescent cell viability assay reagent was purchased from Promega and 22Rv1, LASCPC-01, C4-2, C4-2B and NCI-H660, DU-145, PC-3 and LNCap cell lines were obtained from ATCC and a clinical core facility at Huntsman Cancer Institute. […] The results of cell viability were obtained and IC50 values were calculated (see Table 5, below) showing sub-micromolar cell killing of these prostate cancer cells.
# DU-145 = experiment: 2D CellTiter-Glo cell viability assay; assay type: cell-based; settings: Homo sapiens; DU-145, 72 hours
# Description: as §1, §2
# LASCPC-01 = experiment: 2D CellTiter-Glo cell viability assay; assay type: cell-based; settings: 72 h, LASCPC-01, 72 hours
# Description: as §1, §2
# LNCap = experiment: 2D CellTiter-Glo cell viability assay; assay type: cell-based; settings: Homo sapiens, 72 hours
# Description: as §1, §2
# NCI-H660 = experiment: 2D CellTiter-Glo cell viability assay; assay type: cell-based; settings: NCI-H660, 72 hours
# Description: as §1, §2
# PC-3 = experiment: 2D CellTiter-Glo cell viability assay; assay type: cell-based; settings: Homo sapiens, PC-3, 72 h
# Description: as §1, §2
# C4-2 = experiment: 2D CellTiter-Glo cell viability assay; assay type: cell-based, human; settings: Homo sapiens, C4-2, 72 h
# Description: as §2
# [1] = tested on: RWPE-1 Normal Prostate Cells; experiment: LDH-Glo cytotoxicity assay in normal prostate cells; assay type: cell-based; settings: Homo sapiens, 72 hours
# Description: (§3) Multiplexing the LDH-Glo Cytotoxicity Assay and CellTiter-Glo 2D Cell Viability Assay. […] Change in toxicity was measured using the LDH-Glo Cytotoxicity Assay by combining 50 μL diluted samples with 50 μL LDH Detection Reagent and recording luminescence after 1 hour incubation. After samples were removed for LDH measurement, an equal volume of CellTiter Glo 2D Reagent was added to the remaining cell suspension and luminescence was recorded after 30-minute incubation period.
# C4-2B = experiment: 2D CellTiter-Glo cell viability assay; assay type: cell-based; settings: 72 h
# Description: as §2
# [2] = tested on: RWPE-1 Normal Prostate Cells; experiment: CellTiter-Glo 2D cell viability assay in normal prostate cells; assay type: cell-based
# Description: as §3
# T1 sequence (P50750 whole entry): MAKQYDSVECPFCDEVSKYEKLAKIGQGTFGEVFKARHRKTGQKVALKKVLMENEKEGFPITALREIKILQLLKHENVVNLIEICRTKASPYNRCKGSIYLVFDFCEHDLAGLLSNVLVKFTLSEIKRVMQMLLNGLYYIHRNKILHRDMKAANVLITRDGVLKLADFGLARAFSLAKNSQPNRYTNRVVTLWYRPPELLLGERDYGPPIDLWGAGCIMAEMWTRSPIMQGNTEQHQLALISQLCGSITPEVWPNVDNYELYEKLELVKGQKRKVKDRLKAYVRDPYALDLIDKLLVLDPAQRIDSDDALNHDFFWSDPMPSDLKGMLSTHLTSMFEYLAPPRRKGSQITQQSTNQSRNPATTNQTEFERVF
# T1 sequence (O60563 whole entry partner): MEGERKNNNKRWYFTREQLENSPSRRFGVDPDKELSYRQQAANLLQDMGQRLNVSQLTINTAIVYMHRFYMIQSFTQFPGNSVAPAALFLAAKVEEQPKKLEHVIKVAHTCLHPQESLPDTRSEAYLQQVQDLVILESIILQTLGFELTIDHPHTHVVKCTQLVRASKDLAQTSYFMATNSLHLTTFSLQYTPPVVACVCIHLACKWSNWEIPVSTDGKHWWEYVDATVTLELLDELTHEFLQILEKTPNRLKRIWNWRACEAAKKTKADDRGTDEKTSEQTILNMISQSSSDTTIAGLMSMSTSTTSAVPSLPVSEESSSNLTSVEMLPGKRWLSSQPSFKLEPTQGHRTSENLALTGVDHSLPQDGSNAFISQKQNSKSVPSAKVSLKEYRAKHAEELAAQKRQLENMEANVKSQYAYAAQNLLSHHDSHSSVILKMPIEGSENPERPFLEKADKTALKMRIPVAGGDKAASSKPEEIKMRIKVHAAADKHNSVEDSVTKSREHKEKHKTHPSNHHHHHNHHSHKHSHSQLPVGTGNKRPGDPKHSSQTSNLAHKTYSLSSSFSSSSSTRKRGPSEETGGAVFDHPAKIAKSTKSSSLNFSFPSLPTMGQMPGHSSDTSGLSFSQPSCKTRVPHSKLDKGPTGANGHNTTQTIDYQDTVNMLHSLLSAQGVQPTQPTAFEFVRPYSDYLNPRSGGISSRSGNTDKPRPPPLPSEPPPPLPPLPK
structure (smiles),measurement,setting,value
"CC(C)c1c2cc(-c3ccnc(N[C@H]4C[C@@H]5CCC4C5)n3)ccc2nn1C (stereo in doubt) [Compound I-13, N-((1R,2S,4R)-bicyclo[2.2.1]heptan-2-yl)-4-(3-isopropyl-2-methyl-2H-indazol-5-yl)pyrimidin-2-amine]",IC50,CDK9/CycT1,< 50 nM
"CC(C)c1c2cc(-c3ccnc(N[C@H]4C[C@@H]5CCC4C5)n3)cnc2nn1C (stereo in doubt) [Compound I-14, N-((1R,2S,4R)-bicyclo[2.2.1]heptan-2-yl)-4-(3-isopropyl-2-methyl-2H-pyrazolo[3,4-b]pyridin-5-yl)pyrimidin-2-amine]",IC50,CDK9/CycT1,< 50 nM
"CC(=O)N[C@@H]1CCC[C@H](C(=O)Nc2cc(-c3cnn4c3CC(C)(C)C4)c(Cl)cn2)C1 [AZD-4573, reference compound]",IC50,22Rv1,67.1 nM
same,IC50,DU-145,151 nM
same,IC50,LASCPC-01,13.5 nM
same,IC50,LNCap,1150 nM
same,IC50,NCI-H660,0.221 nM
same,IC50,PC-3,400 nM
same,IC50,C4-2,0.237 nM
same,IC50,[1],151 nM
same,IC50,C4-2B,0.398 nM
same,IC50,"[2]; Homo sapiens, RWPE-1 normal prostate cells, 72 hours",8.4 nM
same,toxicity to normal prostate cells,[2]; RWPE-1,highly toxic
"CC(C)c1c2cc(-c3ccnc(N[C@@H]4CC[C@H](N)C4)n3)ccc2nn1C [Compound I-1, (1S,3R)-[3-[4-(3-isopropyl-2-methylindazol-5-yl)pyrimidin-2-yl]aminocyclopentan-1-yl]-1,3-diamine]",IC50,CDK9/CycT1,< 50 nM
"CC(C)c1c2nc(-c3ccnc(N[C@H]4CC[C@H](N)C4)n3)ccc2nn1C [Compound I-3, (1S,3S)-[3-[4-[3-isopropyl-2-methylpyrazolo[4,3-b]pyridin-5-yl]pyrimidin-2-yl]aminocyclopentan-1-yl]-1,3-diamine]",IC50,CDK9/CycT1,> 1000 nM
"CC(C)c1c2cc(-c3ccnc(N[C@H]4CC[C@H](N)C4)n3)cc(F)c2nn1C [Compound I-4, (1S,3S)-[3-[4-(7-fluoro-3-isopropyl-2-methylindazol-5-yl)pyrimidin-2-yl]aminocyclopentan-1-yl]-1,3-diamine]",IC50,CDK9/CycT1,< 50 nM
"Cn1cc2cc(-c3ccnc(N[C@H]4CC[C@H](N)C4)n3)ccc2n1 [Compound I-6, (1S,3S)-N^1-(4-(2-methyl-2H-indazol-5-yl)pyrimidin-2-yl)cyclopentane-1,3-diamine]",IC50,CDK9/CycT1,< 50 nM
"CC(C)c1[nH]nc2ccc(-c3ccnc(N[C@H]4CC[C@H](N)C4)n3)cc12 [Compound I-7, (1S,3S)-N^1-(4-(3-isopropyl-2H-indazol-5-yl)pyrimidin-2-yl)cyclopentane-1,3-diamine]",IC50,CDK9/CycT1,< 50 nM
"Cc1[nH]nc2ccc(-c3ccnc(N[C@H]4CC[C@H](N)C4)n3)cc12 [Compound I-9, (1S,3S)-N^1-(4-(3-methyl-2H-indazol-5-yl)pyrimidin-2-yl)cyclopentane-1,3-diamine]",IC50,CDK9/CycT1,50 to 100 nM
"CC(C)c1c2cc(-c3ccnc(N[C@H]4CC[C@H](N)C4)n3)cnc2nn1C [Compound I-10, (1S,3S)-N^1-(4-(3-isopropyl-2-methyl-2H-pyrazolo[3,4-b]pyridin-5-yl)pyrimidin-2-yl)cyclopentane-1,3-diamine]",IC50,CDK9/CycT1,< 50 nM
"CC(C)c1nn(C)c2ncc(-c3ccnc(N[C@H]4CC[C@H](N)C4)n3)cc12 [Compound I-11, (1S,3S)-N^1-(4-(3-isopropyl-1-methyl-1H-pyrazolo[3,4-b]pyridin-5-yl)pyrimidin-2-yl)cyclopentane-1,3-diamine]",IC50,CDK9/CycT1,> 1000 nM
